Results: patent publication US11013698B2, “Combinations of LSD1 inhibitors for the treatment of hematological malignancies” (Oryzon Genomics S.A., priority 2016, dated 2021)

Experiments:
Type in all cases: cell-based
THP-1 = assay: Viability assay (96 hours), Alamar Blue; details: THP-1, 96 hours
Method: (§1) AML cell lines were maintained in RPMI 10% FBS medium at 37° C. in a humidified incubator with controlled 5% CO2 atmosphere. Cell freezing and thawing was performed following recommendation from ATCC. Genetic profiling of the cell lines used is available in table 2. Cells were seeded at the optimal density (to guarantee linear growth during the treatment), as previously determined (4000 cells/well, except 16000 cells/well in the case of KASUMI-1 cells), in 96-well plates with 50 μL of medium. Three wells were reserved for each experimental condition; medium-only and vehicle-treated controls were also added for background correction and normalization respectively. […] Alamar Blue® is a cell viability indicator that uses the natural reducing power of living cells to convert resazurin to the fluorescent molecule, resorufin^43.

HL-60 = assay: Viability assay (96 hours), Alamar Blue; details: HL-60, 96 hours
Method: as §1

MV(4;11) = assay: Viability assay (96 hours), Alamar Blue; details: MV(4;11), 96 hours
Method: as §1

KASUMI-1 = assay: Viability assay (96 hours), Alamar Blue; details: KASUMI-1, 96 hours
Method: as §1

MOLM-13 = assay: Viability assay (96 hours), Alamar Blue; details: MOLM-13, 96 hours
Method: as §1

OCI-AML3 = assay: Viability assay (96 hours), Alamar Blue; details: OCI-AML3, 96 hours
Method: as §1

MOLT-4 cells [1] = assay: Viability assay (10 days), Alamar Blue; details: MOLT4, 10 days
Method: MOLT4 cells were maintained in RPMI 10% FBS medium at 37° C. in a humidified incubator with controlled 5% CO2 atmosphere. Cell freezing and thawing was performed following recommendation from ATCC. Genetic profiling of the cell lines used is available in table 4.
Three wells were reserved for each experimental condition; medium-only and vehicle-treated controls were also added for background correction and normalization respectively. After seeding, 50 μL of medium containing 8 1:3 serial dilution of ORY-1001 were added to the cells (range 0.015-100 nM). Cells were then incubated for 6 days at 37° C. in a controlled 5% CO2 atmosphere. On the sixth day, 100 μL of medium with serial dilutions of ORY-1001 (as described previously) or vehicle were added to the cells. Medium without compound (100μ) was added to background control.
After 4 additional days of incubation, cell viability was evaluated using the Alamar Blue® staining as detailed in the section 1.1.2.

MOLT-4 cells [2] = assay: Viability after shorter treatment (96 hours); details: MOLT-4, 96 hours treatment (data not shown)

- EC50 (viability) (THP-1; single agent): sub-nanomolar range
- EC50 (viability) (HL-60; single agent): sub-nanomolar range
- EC50 (viability) (MOLM-13; single agent): sub-nanomolar range
- EC50 (viability) (OCI-AML3; single agent): sub-nanomolar range
- EC50 (viability) (MOLT-4 cells [1]): sub-nanomolar range
Compound: N[C@H]1CC[C@H](N[C@@H]2C[C@H]2c2ccccc2)CC1 [ORY-1001, (trans)-N1-((1R,2S)-2-phenylcyclopropyl)cyclohexane-1,4-diamine]
- Reduction of viability (compared to vehicle controls) (THP-1; serial 1:3 dilution): greater than 20%
- Reduction of viability (compared to vehicle controls) (HL-60; serial 1:3 dilution): greater than 20%
- Reduction of viability (compared to vehicle controls) (MV(4;11); serial 1:3 dilution): greater than 20%
- EC50 (viability) (MV(4;11); single agent): sub-nanomolar range
- Reduction of viability (compared to vehicle controls) (KASUMI-1; serial 1:3 dilution): greater than 20%
- EC50 (viability) (KASUMI-1; single agent): sub-nanomolar range
- Reduction of viability (compared to vehicle controls) (MOLM-13; serial 1:3 dilution): greater than 20%
- Reduction of viability (compared to vehicle controls) (OCI-AML3; serial 1:3 dilution): greater than 20%
- cytotoxicity at 0.1 µM (MOLT-4 cells [1]; Homo sapiens, MOLT-4, 240 h, highest ORY-1001 concentration 100 nM, read-out: Viability reduction (compared to vehicles)): > 20%
- Effect on viability (MOLT-4 cells [2]): not affecting the viability
